Counter-ions that a name gives are not always drawn.
Molecular target: human NAMPT (Homo sapiens (Human), UniProt P43490)
Test: NMN fluorescence biochemical assay (human recombinant NAMPT enzyme assay)
How it was run: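 Activation of recombinant human NAMPT (6 nM) was tested with 2.5 mM ATP, 20 μM PRPP and 150 μM nicotinamide in 50 mM HEPES pH 7.2 for 60 min at ambient temperature. NMN was derivatized with acetophenone/KOH/formic acid and read by fluorescence (355/460 nm) after 40 min.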

Sequence of human NAMPT (P43490 whole entry): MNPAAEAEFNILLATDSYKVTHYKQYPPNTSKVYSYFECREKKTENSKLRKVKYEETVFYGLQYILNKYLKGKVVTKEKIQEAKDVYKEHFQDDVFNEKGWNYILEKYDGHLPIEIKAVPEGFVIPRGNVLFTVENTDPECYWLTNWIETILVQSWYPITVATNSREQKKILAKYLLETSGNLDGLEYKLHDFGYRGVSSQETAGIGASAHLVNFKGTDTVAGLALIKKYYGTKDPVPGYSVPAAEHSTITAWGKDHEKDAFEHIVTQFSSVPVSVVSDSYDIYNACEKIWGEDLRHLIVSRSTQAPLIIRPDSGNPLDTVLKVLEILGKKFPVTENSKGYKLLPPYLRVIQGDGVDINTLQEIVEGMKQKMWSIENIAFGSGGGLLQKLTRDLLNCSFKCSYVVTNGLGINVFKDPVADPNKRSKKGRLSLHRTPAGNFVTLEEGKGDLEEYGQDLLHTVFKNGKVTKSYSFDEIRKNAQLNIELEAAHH

Row | Structure (SMILES) | AC1.4 Human [µM] | EC50 [µM]
1 | COc1nc(C)ccc1C(=O)N[C@@H](C)c1ccc(NC(=O)OCc2ccc(Cl)cc2)cc1 [Compound 213, (4-chlorophenyl)methyl N-{4-[(1S)-1-[(2-methoxy-6-methylpyridin-3-yl)formamido]ethyl]phenyl}carbamate] | 1.95 | 2.92
2 | Cc1ccc(C(=O)NCc2ccc(NC(=O)OCc3ccc(Cl)cc3)cc2)nc1 [Compound 214, (4-chlorophenyl)methyl N-(4-{[(5-methylpyridin-2-yl)formamido]methyl}phenyl)carbamate] | 1.96 | 9.59
3 | CC1CCCN1C(=O)Cc1ccc(NC(=O)OCc2ccc(Cl)cc2)cc1 (stereo not shown) [Compound 215, (4-chlorophenyl)methyl N-{4-[2-(2-methylpyrrolidin-1-yl)-2-oxoethyl]phenyl}carbamate] | 1.96 | 8.35
4 | O=C(Nc1ccc(Cc2ccncc2)cc1)OCc1ccc(Cl)cc1 [Compound 216, 4-chlorobenzyl (4-(pyridin-4-ylmethyl)phenyl)carbamate] | 1.98 | 5.81
5 | COc1ccc(COC(=O)Nc2ccc(COC3CCN(C(C)=O)CC3)cc2)cc1 [Compound 217, 4-methoxybenzyl (4-(((1-acetylpiperidin-4-yl)oxy)methyl)phenyl)carbamate] | 1.98 | 24.4
6 | Cc1ncc(C(=O)N[C@@H](C)c2ccc(NC(=O)OCc3ccc(Cl)cc3)cc2)o1 [Compound 218, (4-chlorophenyl)methyl N-{4-[(1S)-1-[(2-methyl-1,3-oxazol-5-yl)formamido]ethyl]phenyl}carbamate] | 1.99 | 9.06
7 | O=C(Nc1ccc(Cc2ccncc2)cc1)OCc1ccns1 [Compound 219, isothiazol-5-ylmethyl (4-(pyridin-4-ylmethyl)phenyl)carbamate] | 2.03 | 20.6
8 | O=C(Nc1ccc(CC(=O)N2CCOCC2)cc1)OCc1ccc(Cl)cc1 [Compound 220, (4-chlorophenyl)methyl N-{4-[2-(morpholin-4-yl)-2-oxoethyl]phenyl}carbamate] | 2.03 | 32.5
9 | O=C(Cc1ccc(NC(=O)OCc2ccc(Cl)cc2)cc1)N[C@H]1CC[C@H](OC(F)F)CC1 [Compound 221, (4-chlorophenyl)methyl N-[4-({[(1r,4r)-4-(difluoromethoxy)cyclohexyl]carbamoyl}methyl)phenyl]carbamate] | 2.04 | 2.16
10 | CS(=O)(=O)C1CN(Cc2ccc(NC(=O)OCc3ccc(Cl)cc3)cc2)C1 [Compound 222, (4-chlorophenyl)methyl N-{4-[(3-methanesulfonylazetidin-1-yl)methyl]phenyl}carbamate] | 2.05 | 27.6
11 | O=C(Nc1ccc(CN2CCN(C3COC3)CC2)cc1)OCc1ccc(Cl)cc1 [Compound 223, (4-chlorophenyl)methyl N-(4-{[4-(oxetan-3-yl)piperazin-1-yl]methyl}phenyl)carbamate] | 2.05 | 17.6
12 | C[C@H](NC(=O)Cc1ncco1)c1ccc(NC(=O)OCc2ccc(Cl)cc2)cc1 [Compound 224, 4-chlorobenzyl (S)-(4-(1-(2-(oxazol-2-yl)acetamido)ethyl)phenyl)carbamate] | 2.08 | 10.1
13 | Cc1cc(C(=O)NCc2ccc(NC(=O)OCc3ccc(Cl)cc3)cc2)n(C)n1 [Compound 225, (4-chlorophenyl)methyl N-(4-{[(2,5-dimethylpyrazol-3-yl)formamido]methyl}phenyl)carbamate] | 2.08 | 9.1
14 | O=C(Nc1ccc(CNC(=O)c2cnccn2)cc1)OCc1ccc(Cl)cc1 [Compound 226, (4-chlorophenyl)methyl N-{4-[(pyrazin-2-ylformamido)methyl]phenyl}carbamate] | 2.09 | 6.14
15 | Cc1ccc(C(=O)NCc2ccc(NC(=O)OCc3ccc(F)cc3)cc2)cn1 [Compound 227, 4-fluorobenzyl (4-((6-methylnicotinamido)methyl)phenyl)carbamate] | 2.11 | 3.47
16 | CN1CC[C@H](NCc2ccc(NC(=O)OCc3ccc(Cl)cc3)cc2)C1=O [Compound 228, 4-chlorobenzyl (S)-(4-(((1-methyl-2-oxopyrrolidin-3-yl)amino)methyl)phenyl)carbamate] | 2.11 | 21.4
17 | CO[C@@H]1CCCN(C(=O)Cc2ccc(NC(=O)OCc3ccc(Cl)cc3)cc2)C1 [Compound 229, (4-chlorophenyl)methyl N-(4-{2-[(3R)-3-methoxypiperidin-1-yl]-2-oxoethyl}phenyl)carbamate] | 2.13 | 12.8
18 | C[C@H](NC(=O)[C@H]1C[C@@H]2[C@H](C1)C2(F)F)c1ccc(NC(=O)OCc2cnco2)cc1 [Compound 230, 1,3-oxazol-5-ylmethyl N-{4-[(1S)-1-{[(1R,3r,5S)-6,6-difluorobicyclo[3.1.0]hexan-3-yl]formamido}ethyl]phenyl}carbamate] | 2.13 | 15.3

Row | Structure (SMILES) | AC1.4 Human [µM] | EC50 [µM]
19 | O=C(Nc1ccc(CC2CCNCC2)cc1)OCc1ccc(Cl)cc1 [Compound 231, 4-chlorobenzyl (4-(piperidin-4-ylmethyl)phenyl)carbamate hydrochloride] | 2.13 | 33.8
20 | O=C(Nc1ccc(Cc2ccccn2)cc1)OCc1ccc(Cl)cc1 [Compound 233, 4-chlorobenzyl (4-(pyridin-2-ylmethyl)phenyl)carbamate] | 2.18 | 7.8
21 | CC(C)c1ccc(C(=O)NCc2ccc(NC(=O)OCc3ccc(Cl)cc3)cc2)cn1 [Compound 234, (4-chlorophenyl)methyl N-(4-{[(6-isopropylpyridin-3-yl)formamido]methyl}phenyl)carbamate] | 2.19 | 3.38
22 | O=C1CN(C(=O)Cc2ccc(NC(=O)OCc3ccc(Cl)cc3)cc2)CCN1 [Compound 235, (4-chlorophenyl)methyl N-{4-[2-oxo-2-(3-oxopiperazin-1-yl)ethyl]phenyl}carbamate] | 2.22 | 44.9
23 | O=C1CN(C2CCC2)[C@@H](c2ccc(NC(=O)OCc3ccc(Cl)cc3)cc2)CN1 [Compound 236, 4-chlorobenzyl (S)-(4-(1-cyclobutyl-5-oxopiperazin-2-yl)phenyl)carbamate] | 2.25 | 50.6
24 | O=C(Nc1ccc(CC(=O)N2CCC[C@@H](O)C2)cc1)OCc1ccc(Cl)cc1 [Compound 237, (4-chlorophenyl)methyl N-(4-{2-[(3R)-3-hydroxypiperidin-1-yl]-2-oxoethyl}phenyl)carbamate] | 2.25 | 32.3
25 | O=C(Nc1ccc(CNC(=O)c2ccnn2C2CCOCC2)cc1)OCc1ccc(Cl)cc1 [Compound 238, (4-chlorophenyl)methyl N-[4-({[2-(oxan-4-yl)pyrazol-3-yl]formamido}methyl)phenyl]carbamate] | 2.29 | 10.6
26 | O=C(Nc1ccc(CNC(=O)c2ccc(C(F)(F)F)nc2)cc1)OCc1ccc(Cl)cc1 [Compound 239, (4-chlorophenyl)methyl N-[4-({[6-(trifluoromethyl)pyridin-3-yl]formamido}methyl)phenyl]carbamate] | 2.32 | 1.89
27 | CC1CCN(C(=O)Cc2ccc(NC(=O)OCc3ccc(Cl)cc3)cc2)CC1 [Compound 240, (4-chlorophenyl)methyl N-{4-[2-(4-methylpiperidin-1-yl)-2-oxoethyl]phenyl}carbamate] | 2.33 | 2.73
28 | Cc1ocnc1C(=O)N[C@@H](C)c1ccc(NC(=O)OCc2ccc(Cl)cc2)cc1 [Compound 241, (4-chlorophenyl)methyl N-{4-[(1S)-1-[(5-methyl-1,3-oxazol-4-yl)formamido]ethyl]phenyl}carbamate] | 2.37 | 11.8
29 | O=C(Nc1ccc(CN2CCOC2=O)cc1)OCc1ccc(Cl)cc1 [Compound 242, (4-chlorophenyl)methyl N-{4-[(2-oxo-1,3-oxazolidin-3-yl)methyl]phenyl}carbamate] | 2.38 | 19.8
30 | Cc1coc(C(=O)N[C@@H](C)c2ccc(NC(=O)OCc3ccc(Cl)cc3)cc2)n1 [Compound 243, 4-chlorobenzyl (S)-(4-(1-(4-methyloxazole-2-carboxamido)ethyl)phenyl)carbamate] | 2.38 | 26.3
31 | C[C@H]1CCN(C(=O)Cc2ccc(NC(=O)OCc3ccc(Cl)cc3)cc2)C1 [Compound 244, (4-chlorophenyl)methyl N-(4-{2-[(3S)-3-methylpyrrolidin-1-yl]-2-oxoethyl}phenyl)carbamate] | 2.39 | 5.67
32 | COc1nc(C)ccc1C(=O)NCc1ccc(NC(=O)OCc2ccc(Cl)cc2)cc1 [Compound 245, (4-chlorophenyl)methyl N-(4-{[(2-methoxy-6-methylpyridin-3-yl)formamido]methyl}phenyl)carbamate] | 2.39 | 6.35
33 | C[C@H](NC(=O)c1cnco1)c1ccc(NC(=O)OCc2ccc(Cl)cc2)cc1 [Compound 246, 4-chlorobenzyl (S)-(4-(1-(oxazole-5-carboxamido)ethyl)phenyl)carbamate] | 2.43 | 6.14
34 | CC(O)(c1ccncc1)c1ccc(NC(=O)OCc2ccc(Cl)cc2)cc1 (stereo not shown) [Compound 247, 4-chlorobenzyl (4-(1-hydroxy-1-(pyridin-4-yl)ethyl)phenyl)carbamate] | 2.45 | 16.5
35 | O=C(Nc1ccc(CNC(=O)c2cccnn2)cc1)OCc1ccc(Cl)cc1 [Compound 248, (4-chlorophenyl)methyl N-{4-[(pyridazin-3-ylformamido)methyl]phenyl}carbamate] | 2.51 | 2.4

From US20240279215A1 (Cytokinetics, Incorporated, priority 2022, published 2024)
